Publication PMC6434079, “Time-dependent inhibition of PHD2” (Bioscience Reports, 2017)
Like-named read-outs stand apart in the source and are kept apart here.

Experiments:
PHD3 [1] = target: T1, PHD3 (Homo sapiens, UniProt Q9H6Z9); test: PHD3 IC50 determination (LC/MS/MS, selectivity screening); type: biochemical
PHD1 [2] = target: T2, PHD1 (Homo sapiens, UniProt Q96KS0); test: PHD1 IC50 determination (LC/MS/MS, selectivity screening); type: biochemical
PHD1 [3] = target: T2, PHD1; settings: read-out: Km for 2-OG, PHD1; 1 μM peptide, 1 mM ascorbic acid, 50 nM enzyme
PHD3 [4] = target: T1, PHD3; settings: read-out: Km for 2-OG, PHD3; 1 μM peptide, 1 mM ascorbic acid, 40 nM enzyme
FIH1 [5] = target: T3, FIH1 (Homo sapiens, UniProt Q9NWT6); settings: read-out: Km for 2-OG, FIH1; 1 μM peptide, 1 mM ascorbic acid, 15 nM enzyme
FIH1 [6] = target: T3, FIH1; test: FIH1 IC50 determination (LC/MS/MS, selectivity screening)
PHD2 = PHD2 (Homo sapiens, UniProt Q9GZT9); test: Mechanism of inhibition and Ki determination at increasing 2-OG concentrations; settings: for mechanism of inhibition of PHD2: IC50 increases linearly with increasing 2-OG concentration
PHD2, sequence (Q9GZT9 180-417): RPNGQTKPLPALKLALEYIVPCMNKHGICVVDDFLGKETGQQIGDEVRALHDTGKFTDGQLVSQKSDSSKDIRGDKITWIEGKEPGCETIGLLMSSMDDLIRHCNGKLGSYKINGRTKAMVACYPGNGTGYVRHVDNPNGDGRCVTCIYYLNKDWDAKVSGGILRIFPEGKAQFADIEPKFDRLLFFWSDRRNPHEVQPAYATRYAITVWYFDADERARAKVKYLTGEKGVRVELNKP

T2 sequence (Q96KS0 163-403): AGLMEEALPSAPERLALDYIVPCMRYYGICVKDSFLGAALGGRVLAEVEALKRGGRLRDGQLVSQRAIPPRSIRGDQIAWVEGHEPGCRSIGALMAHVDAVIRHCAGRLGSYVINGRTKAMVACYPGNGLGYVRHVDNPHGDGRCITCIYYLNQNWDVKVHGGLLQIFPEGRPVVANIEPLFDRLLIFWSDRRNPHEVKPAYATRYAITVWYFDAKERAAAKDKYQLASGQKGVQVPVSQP
T1 sequence (Q9H6Z9 whole entry): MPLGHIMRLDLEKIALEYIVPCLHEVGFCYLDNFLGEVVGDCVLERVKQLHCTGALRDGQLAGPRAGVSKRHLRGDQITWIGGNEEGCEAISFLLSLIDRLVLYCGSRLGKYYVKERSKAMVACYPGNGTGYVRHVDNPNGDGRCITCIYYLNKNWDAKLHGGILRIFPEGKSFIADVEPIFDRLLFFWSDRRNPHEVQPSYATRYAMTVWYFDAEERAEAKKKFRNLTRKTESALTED
T3 sequence (Q9NWT6 whole entry): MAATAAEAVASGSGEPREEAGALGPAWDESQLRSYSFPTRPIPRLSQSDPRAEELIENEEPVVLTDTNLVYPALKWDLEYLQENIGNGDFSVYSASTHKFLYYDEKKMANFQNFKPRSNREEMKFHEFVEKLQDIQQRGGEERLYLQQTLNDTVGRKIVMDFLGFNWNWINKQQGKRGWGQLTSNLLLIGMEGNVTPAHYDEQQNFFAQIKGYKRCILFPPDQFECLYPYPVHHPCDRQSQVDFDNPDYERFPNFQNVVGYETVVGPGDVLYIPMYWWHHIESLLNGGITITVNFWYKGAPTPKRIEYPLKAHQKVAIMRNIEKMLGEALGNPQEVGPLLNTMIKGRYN

| Structure (SMILES) | IC50 (PHD3 [1]) | IC50 (PHD1 [2]) | IC50 (FIH1 [6]) | other results |
| --- | --- | --- | --- | --- |
| CC(C)c1nn(Cc2ccc(-c3ccc(F)cc3)cc2F)c(=O)c(C(=O)NCC(=O)O)c1O [Compound 1] | 13 nM | 0.003 µM | – | – |
| O=C(O)CCC(=O)C(=O)O [Compound 2-OG, 2-oxoglutarate] | – | – | – | Km (PHD1 [3]): 0.31 µM; Km (PHD3 [4]): 0.66 µM; Km (FIH1 [5]): 0.56 µM |
| O=C(O)c1cnn(-c2nc3cc(C(F)(F)F)c(Cl)cc3[nH]2)c1 [Compound 2] | 25 nM | 0.011 µM | 5490 nM | – |
| O=C(O)CNC(=O)c1c(O)n(C2CCCCC2)c(=O)n(C2CCCCC2)c1=O [Compound 3] | 8 nM | 0.015 µM | – | – |
| Cc1nc(C(=O)NCC(=O)O)c(O)c2ccc(Oc3ccccc3)cc12 [Compound 4] | 5 nM | 0.002 µM | > 10000 nM | mechanism of inhibition of PHD2 (PHD2): compete with 2-OG substrate for binding at the enzyme active site |
| O=C(O)CNC(=O)c1nc(Cl)c2ccccc2c1O [Compound 5] | 21 nM | 0.016 µM | > 10000 nM | – |
| O=C(O)CNC(=O)C(=O)O [Compound 6] | 186 nM | – | 191 nM | IC50 (PHD1 [2]; read-out: PHD1 IC50 (μM)—60 min incubation, 60 min preincubation, 25 nM PHD1, 2 μM 2-OG): 0.851 µM |
| N#Cc1cn(-c2c[nH]n(-c3cc(N4CC(F)(F)C4)ncn3)c2=O)nn1 [Compound 7] | 12 nM | 0.02 µM | – | Ki (PHD2): 87 nM; mechanism of inhibition of PHD2 (PHD2): compete with 2-OG substrate for binding at the enzyme active site |
| O=C(NC(c1ccccc1)c1ccccc1)c1cnc(-c2cccnn2)nc1O [Compound 8] | 25 nM | 0.02 µM | 9770 nM | – |
| Cc1cccnc1CN1CCC2(CC1)C(=O)N(c1ccc(-c3ccccc3)cc1)c1ccccc12 [Compound 9] | 2040 nM | 1.62 µM | > 10000 nM | – |
